{
  "source": "patent US20180140578A1",
  "about": "“METHODS AND COMPOSITIONS FOR THE DIAGNOSIS AND SELECTIVE TREATMENT OF CANCER” (Board of Regents of the University of Texas System, priority 2016, published 2018)",
  "key": {"[1]": {"target": "T1, RBM39-3xFLAG G268V with CUL4-DCAF15 complex (Homo sapiens, UniProt Q14498+Q66K64, G268V)", "T1 construct": "lysate derived from parental cells, RBM39-3xFLAG cells, or RBM39 G268V-3xFLAG cells; endogenous in cells; host or cells: HCT-116 RBM39 G268V-3xFLAG cells (treated cells in A91; lysates in A95)", "experiment": "In vitro formation of complex in lysates, G268V", "assay_type": "binding", "conditions": "in the presence of 10 μM of indisulam", "procedure": "First, we reconstituted formation of the RBM39-CUL4-DCAF15 complex in vitro (FIG. 4, panel A).\nAnti-Flag M2 antibody (Sigma-Aldrich) was coupled to Dynabeads M-270 epoxy beads (Life Technologies) at the ratio of 10 μg of antibody/mg beads. […] Frozen cells were then pulverized in the a cryomill (Retsch) with one 25 mm steel ball and five cycles of three min at 25 Hz with intermittent cooling in liquid nitrogen. […] The lysates were centrifuged at 8000 g for 5 min at 4° C. 12 mg of conjugated Anti-Flag magnetic beads were mixed with clarified lysates for 5 min at 4° C. on a rotating platform, followed by three washes with IP buffer. Bound proteins were eluted with 1 mg/ml 3xFLAG peptide, followed by SDS-PAGE on a 10% Bis Tris gel. After brief electrophoresis, bands containing all the proteins were cut with clean blades. For western blotting of co-immunoprecipitated proteins, anti-DDA1 (ProteinTech, 14995-1-AP, 1:1000), anti-DDB1 (Abcam, ab109027, 1;10000), anti-CUL4A (Cell Signaling, 2699, 1:1000), anti-CUL4B (ProteinTech, 12916-1-AP, 1:1000) were used."}, "[2]": {"target": "T2, DCAF15-3xFLAG and RBM39Δ150 (Homo sapiens, UniProt Q14498+Q66K64)", "T2 construct": "Full-length cDNAs encoding CUL4A, CUL4B, DCAF15, and DDB1 were cloned into pLVX IRES Puro; made in house; host or cells: RBM39Δ150: Sf9 (baculovirus); DCAF15-3xFLAG: anti-FLAG beads from HCT-116 or 293T cells stably expressing it", "T2 sequence (Q66K64 whole entry, stated change not applied)": "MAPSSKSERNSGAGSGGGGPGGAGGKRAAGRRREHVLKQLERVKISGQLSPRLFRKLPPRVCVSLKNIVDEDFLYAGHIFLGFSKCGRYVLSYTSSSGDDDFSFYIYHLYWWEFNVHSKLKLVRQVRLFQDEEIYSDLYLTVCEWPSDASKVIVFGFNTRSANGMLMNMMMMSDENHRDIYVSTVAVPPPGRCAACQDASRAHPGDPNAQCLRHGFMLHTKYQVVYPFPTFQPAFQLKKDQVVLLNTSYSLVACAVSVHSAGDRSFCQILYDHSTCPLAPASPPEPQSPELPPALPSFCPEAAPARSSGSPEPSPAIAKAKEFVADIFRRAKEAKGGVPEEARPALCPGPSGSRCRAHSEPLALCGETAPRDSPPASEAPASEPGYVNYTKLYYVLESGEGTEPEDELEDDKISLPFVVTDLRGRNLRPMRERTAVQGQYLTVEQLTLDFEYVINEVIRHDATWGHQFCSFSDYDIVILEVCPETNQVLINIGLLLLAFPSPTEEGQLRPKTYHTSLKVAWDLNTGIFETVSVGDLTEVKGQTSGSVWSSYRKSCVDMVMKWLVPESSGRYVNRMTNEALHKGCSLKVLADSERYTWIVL", "T2 sequence (Q14498 151-530 limits assumed, stated change not applied)": "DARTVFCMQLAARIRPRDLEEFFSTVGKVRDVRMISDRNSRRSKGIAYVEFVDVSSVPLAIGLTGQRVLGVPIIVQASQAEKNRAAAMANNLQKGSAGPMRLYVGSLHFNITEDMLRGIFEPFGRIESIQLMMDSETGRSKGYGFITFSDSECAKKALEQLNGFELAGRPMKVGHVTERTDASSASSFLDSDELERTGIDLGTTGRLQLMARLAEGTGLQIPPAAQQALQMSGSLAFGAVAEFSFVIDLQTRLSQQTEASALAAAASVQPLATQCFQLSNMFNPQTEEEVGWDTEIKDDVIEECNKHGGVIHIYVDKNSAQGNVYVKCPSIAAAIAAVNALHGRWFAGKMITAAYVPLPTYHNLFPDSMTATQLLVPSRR", "T2 sequence (Q16531 whole entry partner)": "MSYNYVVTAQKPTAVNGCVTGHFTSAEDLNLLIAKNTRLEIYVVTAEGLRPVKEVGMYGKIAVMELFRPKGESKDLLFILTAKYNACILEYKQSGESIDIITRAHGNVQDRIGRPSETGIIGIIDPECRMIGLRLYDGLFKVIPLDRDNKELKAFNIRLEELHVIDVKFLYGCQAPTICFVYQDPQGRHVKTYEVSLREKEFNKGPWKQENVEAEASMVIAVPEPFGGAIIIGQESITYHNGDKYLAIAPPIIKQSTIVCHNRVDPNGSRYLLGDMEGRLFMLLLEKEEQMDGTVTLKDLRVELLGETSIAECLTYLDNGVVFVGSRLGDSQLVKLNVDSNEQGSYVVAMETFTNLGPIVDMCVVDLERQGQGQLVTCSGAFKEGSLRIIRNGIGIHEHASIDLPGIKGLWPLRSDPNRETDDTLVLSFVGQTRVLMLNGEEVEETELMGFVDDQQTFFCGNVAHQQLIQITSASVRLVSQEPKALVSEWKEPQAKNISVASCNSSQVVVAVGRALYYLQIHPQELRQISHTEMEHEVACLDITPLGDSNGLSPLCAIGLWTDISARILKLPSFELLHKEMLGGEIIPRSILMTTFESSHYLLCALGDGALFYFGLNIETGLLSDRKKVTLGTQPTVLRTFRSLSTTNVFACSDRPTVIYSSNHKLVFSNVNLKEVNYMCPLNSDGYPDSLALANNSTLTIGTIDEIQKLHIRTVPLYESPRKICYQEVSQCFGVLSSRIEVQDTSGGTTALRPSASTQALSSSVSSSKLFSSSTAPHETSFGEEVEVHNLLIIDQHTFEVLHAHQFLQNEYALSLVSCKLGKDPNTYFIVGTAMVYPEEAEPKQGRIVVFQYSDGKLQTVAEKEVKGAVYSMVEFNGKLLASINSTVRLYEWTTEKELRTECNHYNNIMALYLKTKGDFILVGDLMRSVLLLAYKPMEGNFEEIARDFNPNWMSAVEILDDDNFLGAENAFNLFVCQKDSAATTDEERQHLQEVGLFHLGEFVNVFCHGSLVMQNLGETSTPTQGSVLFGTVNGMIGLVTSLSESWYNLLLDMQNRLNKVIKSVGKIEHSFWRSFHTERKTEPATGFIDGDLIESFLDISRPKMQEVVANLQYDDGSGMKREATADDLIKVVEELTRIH", "experiment": "RBM39Δ150 pulldown assay", "assay_type": "binding", "procedure": "RBM39 lacking the first 150 amino acids after the start codon (RBM39Δ150) was cloned into the pFastBac1 (Life Technologies) vector. Site-directed Mutagenesis of RBM39 was performed using Q5 site-directed mutagenesis kit (NEB). DCAF15-GST (C-terminal GST tag) and DDB1 were also cloned into pFastBac1. The production of baculovirus was carried out following vendor's instructions. Protein was expressed in SF9 cells by infection with each protein specific baculovirus, and cells were harvested 48 hr later and frozen in liquid nitrogen. For purification of RBM39Δ150, frozen cells were pulverized by cryomill and resuspended in lysis buffer (40 mM Tris, pH 7.5, 225 mM NaCl, 1× […] Protease inhibitor). The lysate was passed through a 22 gauge needle 2 times followed by ultracentrifugation at 25000 rpm for 30 min. Clarified lysate was incubated with Ni-NTA agarose (Qiagen) for 30 min with rotation at 4° C. Resin and bound protein were washed with wash buffer 1 (40 mM Tris, pH 7.5, 225 mM NaCl) followed by wash buffer 2 (40 mM Tris, pH 7.5, 20 mM imidazole, 225 mM NaCl). Proteins were eluted with elution buffer (40 mM Tris, pH 7.5, 300 mM imidazole, 225 mM NaCl) and concentrated to 0.5 ml. Concentrated proteins were then fractionated on Superdex 200 Increase 10/300 GL (GE Healthcare). RBM39Δ150 and mutants eluted at 14.8 ml after injection and were stored at −80° C. in 40 mM Tris, pH 7.5, 225 mM NaCl. For purification of DCAF15-GST/DDB1, Sf9 cells co-infected with DCAF15-GST and DDB1 baculoviruses were lysed in PBS supplemented with 0.1% NP40, 1× […] Protease inhibitors, and 0.5 mM PMSF. The lysate was passed through a 22 gauge needle 2 times followed by centrifugation at 7000 rpm for 15 min. Clarified lysate was incubated with Glutathione Sepharose 4B resin (GE healthcare) for 30 min with rotation at 4° C. Resin was washed with PBS for three times before elution with 50 mM Tris, 10 mM glutathione, pH 8.\nHCT-116 cells stably expressing DDB1-3xFLAG, CUL4A-3xFLAG, CUL4B-3xFLAG, or to DCAF15-3xFLAG were lysed in 1×PBS, 0.1% NP40, and 1× […] protease inhibitor (1 ml per […] plate). […]"}, "HCC78 and H1373": {"test_system": "HCC78 and H1373", "experiment": "3 day viability assay, U2AF1 mutant lung cancer cell lines", "assay_type": "cell-based, human", "source_text": "HCC78 and H1373 non-small cell lung cancer cell lines harbor a heterozygous mutations (C to T) in U2AF1 leading to a Serine to Phenylalanine mutation at position 34. FIG. 19 depicts Sanger sequencing of a RT-PCR product from both cell lines. […] Thus, mutations in splicing factor U2AF1 can be used as a biomarker for treating cancer, in a DCAF15 independent manner or together with the DCAF15 biomarker."}, "[3]": {"test_system": "non-small cell lung cancer cell lines", "experiment": "IC50 assay, U2AF1 S34F vs wild type NSCLC cell lines", "assay_type": "cell-based, human", "conditions": "four S34F vs sixty-six wild type lines; p=0.01", "procedure": "Cells were plated at ˜15% confluence in a media comprising 5% concentration of fetal bovine serum supplemented with RPMI, which included 2 mM L-Glutamine in a 96 well dish. […] Following three days of incubation in a 5% CO2 incubator, the total ATP in each well was quantified using Cell Titer Glo (Promega). […] The solid lines represent the medians."}, "[4]": {"test_system": "tumors derived from parental HCT-116 cells", "conditions": "IV 25 mg/kg for 8 days; immune deficient mice; cited from earlier work"}, "human cancer cell lines": {"test_system": "human cancer cell lines", "conditions": "cited from earlier work"}},
  "data": [
    {"smiles": "NS(=O)(=O)c1ccc(S(=O)(=O)Nc2cccc3c(Cl)c[nH]c23)cc1", "note": "[Indisulam, indisulam]", "values": [
      {"measurement": "co-purification of RBM39-3xFLAG G268V with CUL4-DCAF15 complex", "setting": "[1]", "result": "did not co-purify"},
      {"measurement": "co-purification of DCAF15 with RBM39Δ150", "setting": "[2]; in the presence of indisulam, not DDB1, CUL4A or CUL4B", "result": "co-purified"},
      {"measurement": "indisulam concentration at which RBM39Δ150-DCAF15 complex was apparent", "setting": "[2]; wild type RBM39Δ150", "result": 0.10, "unit": "µM"},
      {"measurement": "sensitivity of cancer cell lines harboring a mutation in U2AF1", "setting": "HCC78 and H1373", "result": "sensitive"},
      {"measurement": "sensitivity of U2AF1 S34F vs U2AF1 wild type NSCLC cell lines", "setting": "[3]", "result": "more sensitive"},
      {"measurement": "tumor response (previously shown)", "setting": "[4]", "result": "regression"},
      {"measurement": "effect on cell cycle", "setting": "human cancer cell lines", "result": "cell cycle arrest in the G1 phase followed by cell death"}
    ]}
  ]
}
